Ends that are not written are not given here. Peptide text beside a SMILES is read from it. * marks the point of attachment. Cholyl = C[C@H](CCC(=O)*)[C@H]1CC[C@H]2[C@@H]3[C@H](O)C[C@@H]4C[C@H](O)CC[C@]4(C)[C@H]3C[C@H](O)[C@]12C
Columns and labels:
cultured neuronal cells = experiment: Neurotoxicity of Aβ1-40 preparations with or without modulator (MTT), cell line not specified; assay type: cell-based; conditions: for delay of the appearance of neurotoxicity relative to control: compared with delay of polymerization in nucleation assay
Protocol: The neurotoxicity of natural β-amyloid peptide aggregates, in either the presence or absence of a β-amyloid modulator, is tested in a cell-based assay using either a rat or human neuronally-derived cell line (PC-12 cells or NT-2 cells, respectively) and the viability indicator 3,(4,4-dimethylthiazol-2-yl)2,5-diphenyl-tetrazolium bromide (MTT). […] MTT (commercially available from Sigma Chemical Co.) is a chromogenic substrate that is converted from yellow to blue in viable cells, which can be detected spectrophotometrically.
To test the neurotoxicity of natural β-amyloid peptides, stock solutions of fresh Aβ monomers and aged Aβ aggregates were first prepared. […] Peptide prepared in this way and tested immediately on cells is referred to as “fresh” Aβ monomer. To prepare “aged” Aβ aggregates, peptide solution was placed in a 1.5 ml Eppendorf tube and incubated at 37° C. for eight days to allow fibrils to form. Such “aged” Aβ peptide can be tested directly on cells or frozen at −80° C. The neurotoxicity of fresh monomers and aged aggregates were tested using PC12 and NT2 cells. PC 12 cells were routinely cultured in Dulbeco's modified Eagle's medium (DMEM) containing 10% horse serum, 5% fetal calf serum, 4 mM glutamine, and 1% gentamycin. NT2 cells were routinely cultured in OPTI-MEM medium (GIBCO BRL CAT. #31985) supplemented with 10% fetal calf serum, 2 mM glutamine and 1% gentamycin. Cells were plated at 10-15,000 cells per well in 90 μl of fresh medium in a 96-well tissue culture plate 3-4 hours prior to treatment. The fresh or aged Aβ peptide solutions (10 μL) were then diluted 1:10 directly into tissue culture medium so that the final concentration was in the range of 1-10 μM peptide. Cells are incubated in the presence of peptide without a change in media for 48 hours at 37° C. For the final three hours of exposure of the cells to the β-AP preparation, MTT was added to the media to a final concentration of 1 mg/ml and incubation was continued at 37° C. Following the two hour incubation with MTT, the media was removed and the cells were lysed in 100 μL isopropanol/0.4N HCl with agitation. An equal volume of PBS was added to each well and the plates were agitated for an additional 10 minutes. Absorbance of each well at 570 nm was measured using a microtiter plate reader to quantitate viable cells.

Aβ1-40 = target: T1, Aβ1-40 (Homo sapiens, UniProt P05067); experiment: Nucleation assay (turbidity, A405 nm); assay type: biochemical; conditions: for ΔLag (ratio of lag time with test compound to lag time of control) / inhibition at 100 mol %: Table V; for ΔLag (ratio of lag time with test compound to lag time of control): 100 mole % inhibitor relative to Aβ1-40; for inhibition at 100 mol %: 100 mole % inhibitor, read-out: % Inucl'n (percent reduction in maximum observed turbidity);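 for all read-outs here: synthetic Aβ monomer polymerization followed by turbidity in 96-well plates with continuous shaking, read every 15 minutes over 5 hours, compared against wells lacking test compound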
T1 construct: (β-AP1-40) was obtained commercially from Bachem (Torrance, Calif.); purchased Bachem (Torrance, Calif.)
T1 sequence (P05067 672-711): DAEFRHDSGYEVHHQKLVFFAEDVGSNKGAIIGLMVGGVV
Excerpt: The nucleation assay is employed to determine the ability of test compounds to alter (e.g. inhibit) the early events in formation of β-AP fibers from monomeric β-AP. […] The time delay before polymerization of β-AP monomer can be quantified as well as the extent of formation of insoluble fiber by light scattering (turbidity). Polymerization reaches equilibrium when the maximum turbidity reaches a plateau. The turbidity of a solution of natural β-AP in the absence or presence of various concentrations of a β-amyloid modulator compound is determined by measuring the apparent absorbance of the solution at 405 nm (A405 nm) over time. The threshold of sensitivity for the measurement of turbidity is in the range of 15-20 μM β-AP. […] This assay can be performed using stirring or shaking to accelerate polymerization, thereby increasing the speed of the assay. Moreover the assay can be adapted to a 96-well plate format to screen multiple compounds.
HFIP-solubilized peptide is sonicated in a waterbath sonicator for 5 mM at highest setting, then evaporated to dryness under a stream of argon. The peptide film is resuspended in anhydrous dimethylsulfoxide (DMSO) at a concentration of 6.9 mg/ml (25× concentration), sonicated for 5 mM as before, then filtered through a 0.2 micron nylon syringe filter (VWR cat. No. 28196-050). Test compounds are dissolved in DMSO at a 100× concentration. […] Ten microliters of the mixture is then added to the bottom of a well of a Corning Costar ultra low binding 96-well plate (Corning Costar, Cambridge Mass.; cat. No. 2500). Ninety microliters of water is added to the well, the plate is shaken on a rotary shaken at a constant speed at room temperature for 30 seconds, an additional 100 μl of 2×PTL buffer (20 mM NaH2PO4, 300 mM NaCl, pH 7.4) is added to the well, the plate is reshaken for 30 seconds and a baseline (t=0) turbidity reading is taken by measuring the apparent absorbance at 405 nm using a Bio-Rad Model 450 Microplate Reader. The plate is then returned to the shaker and shaken continuously for 5 hours. Turbidity readings are taken at 15 minute intervals.
β-amyloid aggregation in the absence of any modulators results in enhanced turbidity of the natural β-AP solution (i.e., an increase in the apparent absorbance at 405 nm over time).
Accordingly a fold increase in lag time of 1.0 indicates no change in lag time, whereas numbers >1.0 indicate an increase in lag time. The “% inhibition of plateau”, which is a measure of the ability of the compound to decrease the total amount of aggregation, refers to the reduction of the final turbidity in the presence of the test compound expressed as a percent of the control without the test compound.

natural β-AP (β-AP1-40) = target: T2, natural β-AP (β-AP1-40) (Homo sapiens, UniProt P05067); experiment: Optical density (turbidity, A400 nm) aggregation assay; assay type: biochemical
T2 construct: (β-AP1-40) was obtained commercially from Bachem (Torrance, Calif.); purchased Bachem (Torrance, Calif.)
T2 sequence (P05067 672-711): as above
Protocol: In one assay, β-AP aggregation was measured by determining the increase in turbidity of a solution of natural β-AP over time in the absence or presence of various concentrations of the modulator. Turbidity of the solution was quantitated by determining the optical density at 400 nm (A400 nm) of the solution over time.
The aggregation of natural β-AP in the absence of modulator was determined as follows. β-AP1-40 was dissolved in hexafluoro isopropanol (HFIP; Aldrich Chemical Co., Inc.) at 2 mg/ml. Aliquots of the HFIP solution (87 μl) were transferred to individual 10 mm×75 mm test tubes. A stream of argon gas was passed through each tube to evaporate the HFIP. To the resulting thin film of peptide, dimethylsulfoxide (DMSO; Aldrich Chemical Co., Inc.) (25 μl) was added to dissolve the peptide. A 2 mm×7 mm teflon-coated magnetic stir bar was added to each tube. Buffer (475 μL of 100 mM NaCl, 10 mM sodium phosphate, pH 7.4) was added to the DMSO solution with stiffing. The resulting mixture was stirred continuously and the optical density was monitored at 400 nm to observe the formation of insoluble peptide aggregates.
Alternatively, β-AP1-40 was dissolved in DMSO as described above at 1.6 mM (6.9 mg/ml) and aliquots (25 μl) were added to stirred buffer (475 μl), followed by monitoring of absorbance at 400 nm […]

β-AP1-40 = target: T3, β-AP1-40 (Homo sapiens, UniProt P05067); experiment: Static aggregation assay (SDS-PAGE); assay type: biochemical
T3 construct: (β-AP1-40) was obtained commercially from Bachem (Torrance, Calif.); purchased Bachem (Torrance, Calif.)
T3 sequence (P05067 672-711): as above
Protocol: In a third assay, β-AP aggregation was measured by visualization of the peptide aggregates using SDS-polyacrylamide gel electrophoresis (SDS-PAGE). In this assay, β-AP solutions were allowed to aggregate over a period of time and then aliquots of the reaction were run on a standard SDS-PAGE gel. Typical solution conditions were 200 μM of β-AP1-40 in PBS at 37° C. for 8 days or 200 μM β-AP1-40 in 0.1 M sodium acetate at 37° C. for 3 days. The peptide aggregates were visualized by Coomassie blue staining of the gel or, for β-AP solutions that included a biotinylated β-AP modulator, by western blotting of a filter prepared from the gel with a streptavidin-peroxidase probe, followed by a standard peroxidase assay. The β-AP aggregates are identifiable as high molecular weight, low mobility bands on the gel, which are readily distinguishable from the low molecular weight, high mobility β-AP monomer or dimer bands.

Aβ(1-40) peptide [1] = target: T4, Aβ(1-40) peptide (Homo sapiens, UniProt P05067); experiment: Seeded static assay (SSA), Thioflavin-T fluorescence; assay type: biochemical; conditions: inhibitor tested at 100 μM and 10 μM
T4 construct: (β-AP1-40) was obtained commercially from Bachem (Torrance, Calif.); purchased Bachem (Torrance, Calif.)
T4 sequence (P05067 672-711): as above
Protocol: The peptide was dissolved in 1/25 volume of dimethysulfoxide (DMSO), followed by water to 1/2 volume and 1/2 volume 2×PBS (10×PBS: NaCl 137 mM, KCl 2.7 mM Na2HPO4.7H2O 4.3 mM, KH2PO4 1.4 mM pH 7.2) to a final concentration of 200 μM.
To prepare a stock seed, 1 ml of the above Aβ monomer preparation, was incubated for 8 days at 37° C. and sheared sequentially through an 18, 23, 26 and 30 gauge needle 25, 25, 50, and 100 times respectively. 2 μl samples of the sheared material was taken for fluorescence measurements after every 50 passes through the 30 gauge needle until the fluorescence units (FU) had plateaued (approx. 100-150×).
To prepare a candidate inhibitor, the required amount of candidate inhibitor was weighed out and the stock dissolved in 1×PBS to a final concentration of 1 mM (10× stock). If insoluble, it was dissolved in 1/10 volume of DMSO and diluted in 1×PBS to 1 mM. […]
For the aggregation assay, each sample was set up in triplicate [50 μl of 200 μM monomer, 125 FU sheared seed (variable quantity dependent on the batch of seed, routinely 3-6 μl), 10 μl of 10× inhibitor solution, final volume made up to 100 μl with 1×PBS]. […] The assay was incubated at 37° C. for 6 h, taking 2 μl samples hourly for fluorescence measurements. To measure fluorescence, a 2 μl sample of Aβ was added to 400 μl of Thioflavin-T solution (50 mM Potassium Phosphate 10 mM Thioflavin-T pH 7.5).

Aβ(1-40) peptide [2] = target: T4, Aβ(1-40) peptide; experiment: Shaken plate aggregation assay (absorbance 405 nm); assay type: biochemical; conditions: % conc relative to Aβ(1-40) as printed in cell
Protocol: HFIP solubilized peptide was sonicated in a waterbath sonicator for 5 mM at highest setting, then evaporated to dryness under a stream of argon. The peptide film was resuspended in anhydrous dimethylsulfoxide (DMSO) at a concentration of 6.9 mg/ml, sonicated for 5 mM as before, then filtered through a 0.2 micron nylon syringe filter (VWR cat. No. 28196-050).
Candidates were assayed in triplicate. […] Into an ultra low binding 96 well plate (Corning Costar cat. No. 2500, Cambridge Mass.) 100 rtl PTL buffer (150 mM NaCl, 10 mM NaH2PO4; pH 7.4) was aliquotted per well. For each candidate, 10 μl of peptide mixture in DMSO was aliquotted into each of three wells containing buffer. The covered plate was vigorously vortexed on a plate shaker at high speed for 30 seconds. An additional 100 μl of PTL buffer was added to each well and again the plate was vortexed vigorously for 30 sec. Absorbance at 405 nm was immediately read in a plate reader for a baseline reading. The plate was returned to the plate shaker and vortexed at moderate speed for 5 hours at room temperature, with absorbance readings taken at 15-20 mM intervals. Increased absorbance indicated aggregation.

Row | Molecule | delay of the appearance of neurotoxicity relative to control (cultured neuronal cells) | Fold Increase in Lag Time (Aβ1-40; Table IV, 10 mole %) | ΔLag (ratio of lag time with test compound to lag time of control) (Aβ1-40) | inhibition at 100 mol % (Aβ1-40) | Fold Increase in Lag Time (Aβ1-40; Table IV, 100 mole %) | further results
1 | CC(C)C[C@H](NC(=O)[C@H](CCCCN)NC(=O)CC[C@@H](C)[C@H]1CC[C@H]2[C@@H]3[C@H](O)C[C@@H]4C[C@H](O)CC[C@]4(C)[C@H]3C[C@H](O)[C@]12C)C(=O)N[C@H](C(=O)N[C@@H](Cc1ccccc1)C(=O)N[C@@H](Cc1ccccc1)C(N)=O)C(C)C [PPI-319, cholyl-Aβ16-20-amide] | coincided with the delay in the time at which polymerization of Aβ began | 2.7 fold | 5.4 | 70% |  | Fold Increase in Lag Time (Aβ1-40; Table IV, 33 mole %): 5.6 fold
2 | CC(C)C[C@H](NC(=O)[C@H](CCCCN)NC(=O)[C@H](CCC(N)=O)NC(=O)[C@H](Cc1c[nH]cn1)NC(=O)[C@H](Cc1c[nH]cn1)NC(=O)[C@@H](NC(=O)[C@H](CCC(=O)O)NC(=O)[C@H](Cc1ccc(O)cc1)NC(=O)CNC(=O)[C@H](CO)NC(=O)[C@H](CC(=O)O)NC(=O)[C@H](Cc1c[nH]cn1)NC(=O)CC[C@@H](C)[C@H]1CC[C@H]2[C@@H]3[C@H](O)C[C@@H]4C[C@H](O)CC[C@]4(C)[C@H]3C[C@H](O)[C@]12C)C(C)C)C(=O)N[C@H](C(=O)N[C@@H](Cc1ccccc1)C(=O)N[C@@H](Cc1ccccc1)C(=O)O)C(C)C [PPI-264, cholyl-Aβ6-20] (Cholyl-HDSGYEVHHQKLVFF-OH) |  | 2.0 fold |  |  |  | neurotoxicity of Aβ1-40 solution preincubated with modulator (cultured neuronal cells; modulator preincubated with Aβ1-40 monomers, applied to cells 48 hours, MTT): inhibits the neurotoxicity of the Aβ1-40 solution; Fold Increase in Lag Time (Aβ1-40; Table II, 100 mole % vs 50 μM Aβ1-40): >4.5 fold; Fold Increase in Lag Time (Aβ1-40; Table III, 10 mole %): 2 fold; Fold Increase in Lag Time (Aβ1-40; Table III, 100 mole %): >4.5 fold; aggregation of Aβ1-40 (turbidity) (Aβ1-40; equimolar: Aβ1-40 and modulator both 64 μM, FIG. 4 panel A): effective at inhibiting aggregation of Aβ140
3 | CC(C)C[C@H](NC(=O)CC[C@@H](C)[C@H]1CC[C@H]2[C@@H]3[C@H](O)C[C@@H]4C[C@H](O)CC[C@]4(C)[C@H]3C[C@H](O)[C@]12C)C(=O)N[C@H](C(=O)N[C@@H](Cc1ccccc1)C(=O)N[C@@H](Cc1ccccc1)C(=O)N[C@@H](C)C(=O)O)C(C)C [PPI-368, cholyl-Aβ17-21] | coincided with the delay in the time at which polymerization of Aβ began |  | >5 | 100% | >5.0 fold | 
4 | CC(C)C[C@H](NC(=O)[C@H](CCCCN)NC(=O)CC[C@@H](C)[C@H]1CC[C@H]2[C@@H]3[C@H](O)C[C@@H]4C[C@H](O)CC[C@]4(C)[C@H]3C[C@H](O)[C@]12C)C(=O)N[C@H](C(=O)N[C@@H](Cc1ccccc1)C(=O)N[C@@H](Cc1ccccc1)C(=O)O)C(C)C [PPI-350, cholyl-Aβ16-20] | coincided with the delay in the time at which polymerization of Aβ began | 2.4 fold | 1.8 | 72% | >5.0 fold | Fold Increase in Lag Time (Aβ1-40; Table III, 38 mole %): 3.4 fold
5 | N-biotinyl-βAP1-40 |  |  |  |  |  | aggregation of natural β-AP1-40 (turbidity: lag time, slope, plateau) (natural β-AP (β-AP1-40); modulator at 1% in natural β-AP1-40 solution): markedly inhibited; aggregation of natural β-AP1-40 (turbidity) (natural β-AP (β-AP1-40); modulator at 5% in natural β-AP1-40 solution): similarly inhibited aggregation; modulator self-aggregation (high molecular weight aggregates on gel) (β-AP1-40; N-biotinyl peptide alone, no natural β-AP): few if any high molecular weight aggregates were observed; aggregation of mixture with natural β-AP1-40 (high molecular weight aggregates on gel) (β-AP1-40; mixture of natural β-AP1-40 and modulator): reduced amounts of the peptide mixture associated into high molecular weight aggregates
6 | Candidate Inhibitor 233: Aβ6-20 modified with acetic acid (HDSGYEVHHQKLVFF; also: modified with acetic acid; UniProt P05067 677-691, looked up, fragment) |  |  |  |  |  | Effect in Seeded Static Assay (Aβ(1-40) peptide [1]): ++ (A strong inhibitor of aggregation. The rate of aggregation in the presence of the inhibitor was decreased compared to the control by at least 30-50%)
7 | Candidate Inhibitor 224: Aβ1-40 mutant F19F20->T19T20 |  |  |  |  |  | Effect in Seeded Static Assay (Aβ(1-40) peptide [1]): ++ (A strong inhibitor of aggregation. The rate of aggregation in the presence of the inhibitor was decreased compared to the control by at least 30-50%); Effect in shaken plate assay (Aβ(1-40) peptide [2]): Increased lag
8 | CC(C)C[C@H](NC(=O)[C@H](CCCCN)NC(=O)[C@H](CCC(N)=O)NC(=O)CC[C@@H](C)[C@H]1CC[C@H]2[C@@H]3[C@H](O)C[C@@H]4C[C@H](O)CC[C@]4(C)[C@H]3C[C@H](O)[C@]12C)C(=O)N[C@H](C(=O)N[C@@H](Cc1ccccc1)C(=O)N[C@@H](Cc1ccccc1)C(=O)O)C(C)C [PPI-349, cholyl-Aβ15-20] | coincided with the delay in the time at which polymerization of Aβ began | 2.1 fold | >5 | 100% | >5.0 fold | Fold Increase in Lag Time (Aβ1-40; Table III, 33 mole %): 2.3 fold; Fold Increase in Lag Time (Aβ1-40; Table IV, 33 mole %): 2.6 fold
9 | PPI-426: CA-FFVLA-oh, rearranged Aβ17-21 | coincided with the delay in the time at which polymerization of Aβ began |  |  |  |  | 
